Test results reported in US20030022826A1, “Use of synthetic peptides to induce tolerance to pathogenic T and B cell epitopes of autoantigens or infectious agents” (priority 1987, published 2003).
Marks after values point to notes of the source that are not given here.

Tests used:
[1] = tested on: Th-B peptide, T1-SP10IIIB(A); assay: PBMC 3H-thymidine incorporation response to HIV Th-B peptide in immunized chimpanzees; type: in vivo, chimpanzee; settings: 7 day tritiated thymidine incorporation assays
Source text: Acpm=experimental cpm—control cpm.

[2] = tested on: Th-B peptide, T1-SP10IIIB; assay: Endpoint ELISA anti-peptide antibody titers in chimpanzees immunized with HIV env synthetic peptides; type: in vivo, chimpanzee; settings: for immunogenicity in chimpanzees (antibody response): low (0.1 mg/kg) or high (0.5 mg/kg) doses in IFA
Method: Immunizations: For goats, 3 mg of peptide were injected intramuscularly in each gluteal region in complete Freund's adjuvant (CFA) (1st dose), then incomplete Freund's adjuvant (IFA) (subsequent doses). […]
When neither peptide design induced neutralizing anti-HIVIIIB antibodies, the peptide doses were increased to approximately 0.5 mg/kg (30 mg/animal) and the right-hand side neutralizing sequence of HIVIIIB gp120 V3 loop (the (A) region) (Hart et al, Proc. Natl. Acad. Sci. USA 88:9448; Rusche et al Proc. Natl. Acad. Sci. USA 85:3198)) (Table 8) was added to the Th-B peptide to enhance the ability of this peptide to induce anti-HIVIIIB neutralizing antibodies. After 3 monthly injections with either ˜0.5 mg/kg (30 mg) Th-B or F-Th-B peptide, the animals were rested for 6 months, and then reimmunized with either F-Th-B or Th-B with sequences from HIVIIIB, or with the Th-B peptide containing HIV env gp120 V3 sequences from the HIVMN isolate.

human JY B cells = assay: Peptide binding to human cells, flow cytometry with anti-gp120 mab 0.5beta; type: cell-based; settings: mean channel fluoresence, peptide 10 ug/ml
Method: Anti-gp120 momoclonal antibody was 0.5beta from the NIAID AIDS Research and Reference Reagent Program (Matsushita et al J. Virol. 62:2107, 1988). […] The amount of fluoresence was determined on a flow cytometer and fluoresence brightness was expressed as MFC=mean channel fluoresence.

JY B cells = assay: Peptide entry into cells, intracytoplasmic fluorescence of acetone-fixed cells; type: cell-based, human; settings: for % Intracytoplasmic Positive: peptide 10 μg/ml, 21 hours at 37 degrees C
Method: Cells were incubated as descirbed in Table 13. After 21 hours at 37 degrees C., cytocentrifuge preparations of cells were prepared, acetone fixed, and reacted either with control mab P3x63 AgS or with anti-qp120 mab 0.5beta. Slides were read for either faint or bright intracytoplasmic fluoresence on a fluoresence microscope.

HIVIIIB = assay: Anti-HIVIIIB neutralizing antibodies in immunized goats (reverse transcriptase inhibition); type: in vivo, HIV; settings: 3 mg, CFA then IFA, after the fourth immunization
Method: FIG. 15. […] Goat 102A was immunized with 3 mg of the F-Th-B peptide, F-T1-SP10IIIB(A) and goat 104A was immunized with the HIVIIIB Th-B peptide, T1-SP10IIIB. Immunizations were in CFA (first dose) and IFA (doses 2-4). Neutralizing titers are titers at which reverse transcriptase production was inhibited by 90% or greater.
Immunizations: For goats, 3 mg of peptide were injected intramuscularly in each gluteal region in complete Freund's adjuvant (CFA) (1st dose), then incomplete Freund's adjuvant (IFA) (subsequent doses). For immunization of chimpanzees, varying doses of peptides were injected IM in IFA in a total volume of 4 cc, with 1 cc injected into right and left upper arms and thighs.
(§1) HIV Neutralization Assays: The ability of chimpanzee or goat serum antibodies to neutralize HIV was determined in syncytium inhibition assay and reverse transcriptase inhibition assay as previously described (Palker et al, J. Immunol. 142:3612 (1989); Palker et al, Proc. Natl. Acad. Sci. USA 85:1932 (1988)). Sera were heat inactivated (30 min, 56° C.) prior to each assay.

HIV MN [3] = assay: Reverse transcriptase inhibition assay with sera of immunized chimpanzees, HIV MN; type: in vivo
Method: as §1

HIV LAI/IIIB [4] = assay: Syncytium inhibition assay with sera of immunized chimpanzees, HIV LAI/IIIB; type: in vivo
Method: as §1

HIV LAI/IIIB [5] = assay: Reverse transcriptase inhibition assay with sera of immunized chimpanzees, HIV LAI/IIIB; type: in vivo
Method: as §1

HIV MN [6] = assay: Syncytium inhibition assay with sera of immunized chimpanzees, HIV MN; type: in vivo
Method: as §1

[7] = chimpanzee 1045 serum, Month 19, prior F-Th-B(IIIB)
[8] = chimpanzee 1045 serum, Month 20, prior F-Th-B(IIIB)
[9] = chimpanzee 1070 serum, Month 18, prior F-Th-B(IIIB)
[10] = chimpanzee 1070 serum, Month 19, prior F-Th-B(IIIB)
[11] = chimpanzee 1070 serum, Month 20, prior F-Th-B(IIIB)

In the case of “KQIINMWQEVGKAMYACTRPNNNTRKSIRIQRGPGRAFVTI [T1-SP10IIIB(A), HIVIIIB Th-B peptide with (A) region]”, the “PBMC proliferation to T1-SP10IIIB(A) peptide” value [1] is reported as “induced high levels of proliferation”, the “immunogenicity in chimpanzees (antibody response)” value [2] is reported as “potent immunogens” and the “MFC 4 Degrees C., 1 Hr.” value (human JY B cells; 4 degrees C, 1 hour) is reported as 14.7. For the same sequence, the “MFC 37 Degrees C., 22 Hr.” value (human JY B cells; 37 degrees C, 22 Hr.) was 14.0, the “% Intracytoplasmic Positive” value (JY B cells; Anti-gp120 mab 0.5beta) was 0% and the “% Intracytoplasmic Positive” value (JY B cells; Control antibody (mab P3x63 AgS)) was 0%.

“KQIINMWQEVGKAMYACTRPNNNTRKSIRIQRGPG [Peptide T1-SP10IIIB, HIVIIIB Th-B peptide]” was tested, and the “PBMC proliferation to T1-SP10IIIB(A) peptide” value [1] was “induced high levels of proliferation”, the “induction of serum anti-HIV neutralizing antibodies” value (HIVIIIB) was “induced anti-HIV neutralizing antibodies in goats” and the “immunogenicity in chimpanzees (antibody response)” value [2] was “potent immunogens”.

For “KQIINMWQEVGKAMYACTRPNYNKRKRIHIGPGRAFYTTK [T1-SP10MN(A), HIVMN Th-B peptide]”, the “Reciprocal Titer in RT Inhibition Assay” value (HIV MN [3]; chimpanzee 884 serum, Month 18, prior Th-B(IIIB)) was 20, the “Reciprocal Titer in RT Inhibition Assay” value (HIV MN [3]; chimpanzee 884 serum, Month 20, prior Th-B(IIIB)) was 24 and the “Reciprocal Titer in RT Inhibition Assay” value (HIV MN [3]; chimpanzee 1045 serum, Month 18, prior F-Th-B(IIIB), Th-B(IIIB)) was 23. The “Reciprocal Titer in RT Inhibition Assay” value (HIV MN [3]; chimpanzee 1045 serum, Month 19, prior F-Th-B(IIIB), Th-B(IIIB)) was 23, the “Reciprocal Titer in RT Inhibition Assay” value (HIV MN [3]; chimpanzee 1045 serum, Month 20, prior F-Th-B(IIIB), Th-B(IIIB)) was 24 and the “Reciprocal Titer in RT Inhibition Assay” value (HIV MN [3]; chimpanzee 1070 serum, Month 18, prior F-Th-B(IIIB), Th-B(IIIB)) was 22. For the same sequence, the “Reciprocal Titer in RT Inhibition Assay” value (HIV MN [3]; chimpanzee 1070 serum, Month 19, prior F-Th-B(IIIB), Th-B(IIIB)) was 96, the “Reciprocal Titer in RT Inhibition Assay” value (HIV MN [3]; chimpanzee 1070 serum, Month 20, prior F-Th-B(IIIB), Th-B(IIIB)) was 350 and the “Presence of Neutralization in Syncytium Inhibition Assay” value (HIV LAI/IIIB [4]; [7]) was “+/− (≧49% and <80% inhibition of syncytia.)”. The “Presence of Neutralization in Syncytium Inhibition Assay” value (HIV LAI/IIIB [4]; [8]) was “− (<48% inhibition of syncytia.)”, the “Presence of Neutralization in Syncytium Inhibition Assay” value (HIV LAI/IIIB [4]; [9]) was “+/− (≧49% and <80% inhibition of syncytia.)” and the “Presence of Neutralization in Syncytium Inhibition Assay” value (HIV LAI/IIIB [4]; [10]) was “+ (≧80% inhibition of syncytia, titer 1:10.)”. The “Presence of Neutralization in Syncytium Inhibition Assay” value (HIV LAI/IIIB [4]; [11]) was “+/− (≧49% and <80% inhibition of syncytia.)”, the “Reciprocal Titer in RT Inhibition Assay” value (HIV LAI/IIIB [5]; [7]) was 23 and the “Reciprocal Titer in RT Inhibition Assay” value (HIV LAI/IIIB [5]; [8]) was 22. The “Reciprocal Titer in RT Inhibition Assay” value (HIV LAI/IIIB [5]; [9]) was 92, the “Reciprocal Titer in RT Inhibition Assay” value (HIV LAI/IIIB [5]; [10]) was 100 and the “Reciprocal Titer in RT Inhibition Assay” value (HIV LAI/IIIB [5]; [11]) was 86. For the same sequence, the “Reciprocal of ELISA Titer” value ([2]; chimpanzee 884, month 17, after Th-B(IIIB) months 2-14) was 12,800, the “Reciprocal of ELISA Titer” value ([2]; chimpanzee 884, month 18, after Th-B(IIIB) months 2-14) was 25,600 and the “Reciprocal of ELISA Titer” value ([2]; chimpanzee 884, month 19, after Th-B(IIIB) months 2-14) was 25,600. The “Reciprocal of ELISA Titer” value ([2]; chimpanzee 884, month 20, after Th-B(IIIB) months 2-14) was 51,200, the “Reciprocal of ELISA Titer” value ([2]; chimpanzee 1028, month 17, after Th-B(IIIB) months 2-14, injections in PBS alone) was 3,200 and the “Reciprocal of ELISA Titer” value ([2]; chimpanzee 1028, month 18, after Th-B(IIIB) months 2-14, injections in PBS alone) was 6,400. The “Reciprocal of ELISA Titer” value ([2]; chimpanzee 1028, month 19, after Th-B(IIIB) months 2-14, injections in PBS alone) was 1,600, the “Reciprocal of ELISA Titer” value ([2]; chimpanzee 1028, month 20, after Th-B(IIIB) months 2-14, injections in PBS alone) was 6,400 and the “Reciprocal of ELISA Titer” value ([2]; chimpanzee 1045, month 17, after F-Th-B(IIIB) months 2-14 and Th-B(IIIB) month 16) was 1,600. For the same sequence, the “Reciprocal of ELISA Titer” value ([2]; chimpanzee 1045, month 18, after F-Th-B(IIIB) months 2-14 and Th-B(IIIB) month 16) was 6,400, the “Reciprocal of ELISA Titer” value ([2]; chimpanzee 1045, month 19, after F-Th-B(IIIB) months 2-14 and Th-B(IIIB) month 16) was 6,400 and the “Reciprocal of ELISA Titer” value ([2]; chimpanzee 1045, month 20, after F-Th-B(IIIB) months 2-14 and Th-B(IIIB) month 16) was 51,200. For the same sequence, the “Reciprocal of ELISA Titer” value ([2]; chimpanzee 1070, month 17, after F-Th-B(IIIB) months 2-14 and Th-B(IIIB) month 16) was 3,200, the “Reciprocal of ELISA Titer” value ([2]; chimpanzee 1070, month 18, after F-Th-B(IIIB) months 2-14 and Th-B(IIIB) month 16) was 25,600 and the “Reciprocal of ELISA Titer” value ([2]; chimpanzee 1070, month 19, after F-Th-B(IIIB) months 2-14 and Th-B(IIIB) month 16) was 51,200. For the same sequence, the “Reciprocal of ELISA Titer” value ([2]; chimpanzee 1070, month 20 (month 20 immunization not given), after F-Th-B(IIIB) months 2-14 and Th-B(IIIB) month 16) was 102,400#, the “detection of peptide inside the JY B cells” value (JY B cells; 10 ug/ml of peptide for 21 hours at 37 degrees C) was “could not be detected” and the “Presence of Neutralization in Syncytium Inhibition Assay” value (HIV MN [6]; chimpanzee 1045 serum, Month 18, prior F-Th-B(IIIB)) was “− (<48% inhibition of syncytia.)”. For the same sequence, the “Presence of Neutralization in Syncytium Inhibition Assay” value (HIV MN [6]; [7]) was “− (<48% inhibition of syncytia.)”, the “Presence of Neutralization in Syncytium Inhibition Assay” value (HIV MN [6]; [8]) was “− (<48% inhibition of syncytia.)” and the “Presence of Neutralization in Syncytium Inhibition Assay” value (HIV MN [6]; [9]) was “− (<48% inhibition of syncytia.)”. The “Presence of Neutralization in Syncytium Inhibition Assay” value (HIV MN [6]; [10]) was “+ (≧80% inhibition of syncytia, titer 1:10.)” and the “Presence of Neutralization in Syncytium Inhibition Assay” value (HIV MN [6]; [11]) was “++ (≧80% inhibition of syncytia, titer 1:20.)”.
